The values that follow come from patent publication US20090281025A1, “INHIBITION OF TUMOR GROWTH AND METASTASIS BY ATF2-DERIVED PEPTIDES” (Mount Sinai School Of Medicine of New York University, priority 2004, published 2009).

“Also recorded” adds a separate entry of the source.

Experiment [1] has as its system human melanoma cells. The settings on record: cited from earlier work.
In experiment [2] the test system is Jun2-Luc. The experiment can be described thus: Jun2-Luc luciferase reporter assay in SW1 cells. In kind it is cell-based, mouse. To be noted: SW1 cells expressing peptide, luciferase after 18 hours. The procedure: (§1) SW1 cells constitutively expressing the indicated ATF2 peptides were transfected with either TRE-Luc (FIG. 5A) or with Jun2-Luc (FIG. 5B), and proteins were prepared for analysis of luciferase activity after 18 hours. Analysis was performed in duplicate, and the data reflect three independent experiments. SW1 cells expressing the ATF2 peptides were analyzed to establish the degree of spontaneous (basal) apoptosis as well as apoptosis 24 hours following treatment with the chemotherapeutic drug UCN-01 (FIG. 5C). The data represent triplicate analysis reproduced three times.
(§2) Alteration of ATF2 Transcriptional Activity. Assessed next was whether the short peptide caused any change in transcriptional activity mediated by ATF2 and its heterodimeric partners, using the TRE and Jun2 promoter sequences linked to the Luciferase marker gene. These reporter constructs (0.3 μg) were cotransfected with the respective expression vectors into melanoma cells (5×10^5) using Lipofectamine (Invitrogen). Luciferase activity was measured using the Luciferase assay system (Promega).
In general terms: Reporter assays use an easily measured gene product as a stand-in for the process of interest.

Experiment [3] has as its system TRE-Luc. The experiment can be described thus: TRE-Luc luciferase reporter assay in SW1 cells. Format: cell-based, mouse. The settings on record: SW1 cells expressing peptide, luciferase after 18 hours. As for the experimental part: as §1, §2
The test system of experiment [4] is FEMX human melanoma cells. Put plainly: Growth and TUNEL apoptosis of FEMX human melanoma tumors expressing ATF2 peptide in nude mice. Format: in vivo. The text has this:
LU1205 or FEMX human melanoma tumor-derived cell lines that constitutively express ATF2^51-100 peptide or that contain control vector were each injected subcutaneously into a group of 6 nude mice (10^6 cells per injection) per cell line per experiment. […] The data shown represent three experiments. Bars represent standard deviation, P<0.0015. […] The data shown represent three experiments. Bars represent standard deviation, P<0.0021.
The ability of expressed ATF2^51-100 peptide to affect the tumorigenicity of human melanoma cells in vivo was examined. To this end, growth of LU1205 and FEMX human melanoma cells were monitored in nude mice in the presence or absence of treatment that induced apoptosis in vitro. LU1205, FEMX and SW-1 cells that express control or ATF2^51-100 peptide were trypsinized, resuspended in PBS and injected SC (1×10^6) into 6-7 week old mice in the lower flank. When the tumor reached the size of about 50 mm^3, 10 μM of SB203580 was injected into 4 areas of the LU1205 tumors every 4 days during a 2 week period. For FEMX tumors, UCN-01 (5 mg/Kg) was fed by gavage, three times per week for a total of 2 weeks. Tumor growth was monitored every two days. Tissue samples were fixed in formalin and embedded in paraffin. Hematoxylin and eosin (H&E), TUNEL staining was performed as previously described (Bhoumik et al., Clin. Cancer Res., 2001; 2:331-342).

For experiment [5], the system named is JNK. The settings on record: cited from earlier work.
In experiment [6] the test system is MCF7 human breast cancer cells. The settings on record: cited from earlier work.

On to “ATF2^51-100: amino-terminal peptide of ATF2, amino acid residue 51 to 100 (about a 50 amino acid peptide), expressed in tumor cells (MTLKFGPARNDSVIVADQTPTPTRFLKNCEEVGLFNELASPFENEFKKAS; UniProt P15336 51-100, looked up, fragment)”, for which the “degree of programmed cell death (spontaneous and induced apoptosis)” value in experiment [1] (combined with an inhibitor of the p38 catalytic activity) is “increase in the degree of programmed cell death”. Further, the “sensitivity to UV radiation or mitomycin C, adriamycin and verapamil, or UCN-01 (apoptosis assays)” value in experiment [1] (compared with three other 50 amino acid amino-terminal ATF2 peptides) is recorded as “most efficient increase in the sensitivity”. Further, the “cell surface expression of Fas” value in experiment [1] (late stage melanoma cells) is given as “increased cell surface expression of Fas”. For the same substance, the Jun2-Luc transcriptional activity entry in experiment [2] is listed as “efficiently inhibited”. In addition, in experiment [3], the TRE-Luc activity entry is listed as “marked increase”. Moreover, the tumor growth rate result in experiment [4] (FEMX cells constitutively expressing peptide, SC in nude mice) is “reduced the growth rates; also recorded: inhibits growth”. The “tumor growth with additional treatment” value in experiment [4] (peptide-expressing FEMX tumors plus UCN-01 5 mg/Kg by gavage) is on record as “additional decrease in growth”. The “degree of apoptosis in tumors (TUNEL)” value in experiment [4] (peptide-expressing tumors upon exposure to additional treatment) is “marked increase in the degree of apoptosis”. In addition, in experiment [5], the “basal JNK activity” value is reported as “increased basal JNK activity” and the “binding to JNK” value was “binds to JNK”. In addition, the “sensitization by ATF2 peptide” value in experiment [6] is reported as “also observed”.
